Measurements as given in patent US20150057154A1, “HERBICIDAL COMPOSITIONS COMPRISING SULFENTRAZONE plus PROPYZAMIDE AND SULFENTRAZONE PLUS PROPYZAMIDE PLUS ETHALFLURALIN” (Dow AgroSciences LLC, priority 2013, published 2015).

What was measured:
Assay type in all cases: in vivo
[1] = tested on: Avena fatua (wild oats, AVEFA); experiment: Field trial, percent visual weed control of wild oats
Method: (§1) These trials were conducted under field conditions in western Canada. The trials were designed as split-block, factorial designs with timing (spring vs. fall), Authority 480 (sulfentrazone) rate (0, 52 or 105 g ai/ha), Kerb™ SC (propyzamide) rate (0, 450 or 900 g ai/ha) as the main factors and Edge™ Granular (ethalfluralin) application (0 or 1100 g ai/ha) as the split-block factor. Edge™ was applied to test plots at a rate of 1100 g ai/ha using a granular applicator in the fall of 2011 (17 October to 9 November). Authority 480 and Kerb™ SC treatments were applied to test plots either in the fall prior to or after Edge™ application (17 October to 3 November), or in the spring of 2012 (24 April to 5 May). An untreated control was also included in each trial. Following herbicide treatment application in the spring of 2012, lentils were seeded or field peas were seeded into plots. Weed efficacy assessments were taken at 9-15 days after the spring application (DAA2) for an initial evaluation, 33 DAA2 for an early evaluation, 48-52 DAA2 for a mid evaluation, and 77-85 DAA2 for a late evaluation. The trial sites had naturally occurring populations of weeds. The weed spectrum included, but was not limited to, Avena fatua (wild oats, AVEFA), Hordeum jubatum (foxtail barley, HORJU), Kochia scoparia (kochia, KCHSC) and Sinapis arvensis L. (wild mustard, SINAR).
(§2) The treated plots and control plots were rated blind at various intervals after application. Ratings were based of Percent (%) Visual weed control, where 0 corresponds to no injury and 100 corresponds to complete kill.
(§3) Colby's equation was used to determine the herbicidal effects expected from the mixtures (Colby, S. R. Calculation of the synergistic and antagonistic response of herbicide combinations. Weeds 1967, 15, 20-22).
(§4) The following equation was used to calculate the expected activity of mixtures containing two active ingredients, A and B:
(§5) Expected=A+B−(A×B/100) • A=observed efficacy of active ingredient A at the same concentration as used in the mixture; • B=observed efficacy of active ingredient B at the same concentration as used in the mixture.
(§6) For mixtures containing three herbicidal active ingredients, the following equation can be used to calculate the expected activity:
(§7) [formula] • A=observed efficacy of a first active ingredient at the same concentration as used in the mixture; • B=observed efficacy of a second active ingredient B at the same concentration as used in the mixture; • C=observed efficacy of a third active ingredient C at the same concentration as used in the mixture.

[2] = tested on: Sinapis arvensis L. (wild mustard, SINAR); experiment: Field trial, percent visual weed control of wild mustard
Method: as §1, §2, §3, §4, §5, §6, §7

[3] = tested on: Kochia scoparia (kochia, KCHSC); experiment: Field trial, percent visual weed control of kochia
Method: as §1, §2, §3, §4, §5, §6, §7

[4] = tested on: Hordeum jubatum (foxtail barley, HORJU); experiment: Field trial, percent visual weed control of foxtail barley
Method: as §1, §2, §3, §4, §5, §6, §7

[5] = Table 3 (Spring applications), ethalfluralin 1100 g ai/ha (Edge Granular applied in the fall)
[6] = Table 4, Fall application, ethalfluralin 1100 g ai/ha
[7] = Table 2, Spring application, propyzamide 450 g ai/ha
[8] = Table 3, Spring application, propyzamide 450 g ai/ha
[9] = Table 1, Fall application, propyzamide 900 g ai/ha
[10] = Table 1, Fall application, propyzamide 450 g ai/ha
[11] = Table 2, Spring application, propyzamide 900 g ai/ha
[12] = Table 2, Spring application, sulfentrazone 52 g ai/ha
[13] = Table 1, Fall application, sulfentrazone 52 g ai/ha
[14] = Table 3, Spring application, sulfentrazone 52 g ai/ha
[15] = Table 4, Fall application, sulfentrazone 52 g ai/ha
[16] = Table 1, Fall application, sulfentrazone 105 g ai/ha

## C=C(C)CN(CC)c1c([N+](=O)[O-])cc(C(F)(F)F)cc1[N+](=O)[O-] [Ethalfluralin, N-ethyl-N-(2-methyl-2-propen-1-yl)-2,6-dinitro-4-(trifluoromethyl)benzenamine]
[1]; [5]
  AVEFA Obs (Observed percent weed control): 49%
[2]; [5]
  SINAR Obs (Observed percent weed control): 0%
[2]; [6]
  SINAR Obs (Observed percent weed control): 0%
[3]; [5]
  KCHSC Obs (Observed percent weed control): 55%
[3]; [6]
  KCHSC Obs (Observed percent weed control): 55%

## C#CC(C)(C)NC(=O)c1cc(Cl)cc(Cl)c1 [Propyzamide, 3,5-dichloro-N-(1,1-dimethyl-2-propyn-1-yl)benzamide]
[1]; [7]
  AVEFA Obs (Observed percent weed control): 30%
[1]; [8]
  AVEFA Obs (Observed percent weed control): 30%
[2]; [9]
  SINAR Obs (Observed percent weed control): 38%
[2]; Table 3, Spring application, propyzamide 900 g ai/ha
  SINAR Obs (Observed percent weed control): 10%
[2]; Table 4, Fall application, propyzamide 900 g ai/ha
  SINAR Obs (Observed percent weed control): 38%
[3]; [10]
  KCHSC Obs (Observed percent weed control): 0%
[3]; [9]
  KCHSC Obs (Observed percent weed control): 65%
[3]; [11]
  KCHSC Obs (Observed percent weed control): 0%
[3]; [8]
  KCHSC Obs (Observed percent weed control): 17%
[3]; Table 4, Fall application, propyzamide 450 g ai/ha
  KCHSC Obs (Observed percent weed control): 0%
[4]; [10]
  HORJU Obs (Observed percent weed control): 18%
[4]; [9]
  HORJU Obs (Observed percent weed control): 59%
[4]; [7]
  HORJU Obs (Observed percent weed control): 30%
[4]; [11]
  HORJU Obs (Observed percent weed control): 68%

## Cc1nn(-c2cc(NS(C)(=O)=O)c(Cl)cc2Cl)c(=O)n1C(F)F [Sulfentrazone, N-[2,4-dichloro-5-[4-(difluoromethyl)-4,5-dihydro-3-methyl-5-oxo-1H-1,2,4-triazol-1-yl]phenyl]methanesulfonamide]
[1]; [12]
  AVEFA Obs (Observed percent weed control): 0%
[1]; Table 2, Spring application, sulfentrazone 105 g ai/ha
  AVEFA Obs (Observed percent weed control): 15%
[1]; Table 3, Spring application, sulfentrazone 105 g ai/ha
  AVEFA Obs (Observed percent weed control): 0%
[2]; [13]
  SINAR Obs (Observed percent weed control): 38%
[2]; [14]
  SINAR Obs (Observed percent weed control): 53%
[2]; [15]
  SINAR Obs (Observed percent weed control): 25%
[3]; [13]
  KCHSC Obs (Observed percent weed control): 30%
[3]; [16]
  KCHSC Obs (Observed percent weed control): 40%
[3]; [12]
  KCHSC Obs (Observed percent weed control): 20%
[3]; [14]
  KCHSC Obs (Observed percent weed control): 20%
[3]; [15]
  KCHSC Obs (Observed percent weed control): 30%
[4]; [13]
  HORJU Obs (Observed percent weed control): 15%
[4]; [16]
  HORJU Obs (Observed percent weed control): 28%
[4]; [12]
  HORJU Obs (Observed percent weed control): 15%
